Results on nine compounds are retold here after patent publication US12643882B2, “Inhibitors of human respiratory syncytial virus and metapneumovirus” (priority 2022, dated 2026).

Read-outs that look alike come from different tables or passages of the source.

The subject of one experiment is RSV-A2-GFP virus. In words: microbe, parasite or virus in culture. It counts as cell-based, Human Respiratory Syncytial Virus. A digest of the protocol:
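Assay-ready frozen Calu-1 cells at 20,000 cells/mL were infected with recombinant RSV-A2-GFP (MOI 1.2) in DMEM with 2% FBS. Cells were exposed to 10-point 3-fold compound dilutions for 96 h at 37° C. GFP-positive cells were counted by imaging, with same-well CellTiter-Glo for cytotoxicity, and IC50 and CC50 came from 4-parameter logistic fits.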

A further experiment deals with hMPV-GFP virus. The experiment in a line: microbe, parasite or virus in culture. It is filed as cell-based, human metapneumovirus. A digest of the protocol:
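VERO cells infected with GFP-expressing hMPV at MOI 1.25 were incubated 48 h at 37 °C with compound in 10-point 3-fold dilutions (typically 40,300–2 nM final). GFP-positive cells were counted by imaging. Same-well CellTiter-Glo gave cytotoxicity, and IC50/CC50 came from 4-parameter logistic fits.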

Where [1] appears, read: human respiratory syncytial virus, Calu-1, 96 h, read-out: RSV EC50, Calu-1 cells infected with RSV-A2-GFP, 96 hrs, GFP-expressing cells counted.
The mark [2] stands for this setting: human metapneumovirus, Vero, 48 h, read-out: hMPV EC50, VERO cells infected with hMPV-GFP, 48 hrs, GFP-expressing cells counted.
Setting [3] is: Calu-1 cells infected with RSV-A2-GFP, 96 hrs, GFP-expressing cells counted, read-out: RSV EC50.
[4] abbreviates: VERO cells infected with hMPV-GFP, 48 hrs, GFP-expressing cells counted, read-out: hMPV EC50.

With `Cc1nc(-c2ncccn2)sc1C(=O)N1C[C@@H]2[C@H](C1)[C@H]2Oc1cc(C(C)(C)N)cc(-c2ccc(F)cc2)n1` [Example 8, ((1R,5S,6s)-6-((4-(2-aminopropan-2-yl)-6-(4-fluorophenyl)pyridin-2-yl)oxy)-3-azabicyclo[3.1.0]hexan-3-yl)(4-methyl-2-(pyrimidin-2-yl)thiazol-5-yl)methanone], the results for the half-maximal effective concentration (EC50) in the experiment on RSV-A2-GFP virus (setting [1]) and in the experiment with hMPV-GFP virus (setting [2]) were less than 0.01 µM and 0.01 to 0.1 µM, respectively.
For the compound `Cc1nn(-c2ncccn2)cc1C(=O)N1C[C@@H]2[C@H](C1)[C@H]2Oc1cc(C(N)C(C)C)cc(-c2ccc(F)cc2)n1` (stereo partly drawn) [Example 118A, ent-((1R,5S,6s)-6-((4-(1-amino-2-methylpropyl)-6-(4-fluorophenyl)pyridin-2-yl)oxy)-3-azabicyclo[3.1.0]hexan-3-yl)(3-methyl-1-(pyrimidin-2-yl)-1H-pyrazol-4-yl)methanone], the half-maximal effective concentration (EC50) in the experiment on RSV-A2-GFP virus (setting [3]) was less than 0.01 µM; in the experiment with hMPV-GFP virus (setting [4]) it was greater than 0.1 µM.
For `Cc1nc(-c2ncccn2)sc1C(=O)N1C[C@@H]2[C@H](C1)[C@H]2Oc1cc(C(C)(C)N)cc(-c2ccc3c(c2)CCO3)n1` [Example 34, ((1R,5S,6s)-6-((4-(2-aminopropan-2-yl)-6-(2,3-dihydrobenzofuran-5-yl)pyridin-2-yl)oxy)-3-azabicyclo[3.1.0]hexan-3-yl)(4-methyl-2-(pyrimidin-2-yl)thiazol-5-yl)methanone], the EC50 is less than 0.01 µM in the experiment with RSV-A2-GFP virus (setting [3]) and greater than 0.1 µM with hMPV-GFP virus (setting [4]).
In the same order, the values of `Cc1nc(-c2ncccn2)sc1C(=O)N1C[C@@H]2[C@H](C1)[C@H]2Oc1cc(C(C)(C)N)cc(-c2ccc(C(F)(F)F)cc2Cl)n1` [Example 30, ((1R,5S,6s)-6-((4-(2-aminopropan-2-yl)-6-(2-chloro-4-(trifluoromethyl)phenyl)pyridin-2-yl)oxy)-3-azabicyclo[3.1.0]hexan-3-yl)(4-methyl-2-(pyrimidin-2-yl)thiazol-5-yl)methanone] are less than 0.01 µM and 0.01 to 0.1 µM.
For `Cn1nc(-c2ncccn2)cc1C(=O)N1C[C@H]2[C@H](Oc3cc(C(C)(C)N)cc(-c4ccc(F)cc4)n3)[C@@]2(C)C1` (single isomer, unassigned; enantiomer 2) [Example 104B], the EC50 in the experiment on RSV-A2-GFP virus (read-out: RSV EC50, Calu-1 cells infected with RSV-A2-GFP, 96 hrs, GFP-expressing cells counted) was less than 0.01 µM; in the experiment with hMPV-GFP virus (read-out: hMPV EC50, VERO cells infected with hMPV-GFP, 48 hrs, GFP-expressing cells counted) it was greater than 0.1 µM.
Take `Cn1nc(-c2ncccn2)cc1C(=O)N1C[C@@H]2[C@H](C1)[C@H]2Oc1cc(C(C)(C)N)cc(-c2ccc(F)c(Cl)c2)n1` [Example 56, ((1R,5S,6s)-6-((4-(2-aminopropan-2-yl)-6-(3-chloro-4-fluorophenyl)pyridin-2-yl)oxy)-3-azabicyclo[3.1.0]hexan-3-yl)(1-methyl-3-(pyrimidin-2-yl)-1H-pyrazol-5-yl)methanone]: the EC50 is less than 0.01 µM with RSV-A2-GFP virus (setting [3]) and greater than 0.1 µM in the experiment with hMPV-GFP virus (setting [4]).
In the same order, the values of `Cn1nc(-c2ncccn2)cc1C(=O)N1C[C@@H]2[C@H](C1)[C@H]2Oc1cc(C(C)(C)N)cc(-c2ccc(F)cc2Cl)n1` [Example 57, ((1R,5S,6s)-6-((4-(2-aminopropan-2-yl)-6-(2-chloro-4-fluorophenyl)pyridin-2-yl)oxy)-3-azabicyclo[3.1.0]hexan-3-yl)(1-methyl-3-(pyrimidin-2-yl)-1H-pyrazol-5-yl)methanone] are less than 0.01 µM and greater than 0.1 µM.
Take `CCc1nn(-c2ncccn2)cc1C(=O)N1C[C@@H]2[C@H]1C[C@H]2Oc1cc(C(C)(C)N)cc(-c2ccc(F)cc2)n1` (single isomer, unassigned; enantiomer 2) [Example 5]: the concentration giving a half-maximal response (EC50) in the experiment with RSV-A2-GFP virus (setting [1]) was less than 0.01 µM; in the experiment with hMPV-GFP virus (setting [2]) it was greater than 0.1 µM.
As to `CCOc1nn(-c2ncccn2)cc1C(=O)N1C[C@@H]2[C@H](C1)[C@H]2Oc1cc(C(C)(C)N)cc(-c2ccc(F)cc2)n1` [Example 68, ((1R,5S,6s)-6-((4-(2-aminopropan-2-yl)-6-(4-fluorophenyl)pyridin-2-yl)oxy)-3-azabicyclo[3.1.0]hexan-3-yl)(3-ethoxy-1-(pyrimidin-2-yl)-1H-pyrazol-4-yl)methanone], the concentration giving a half-maximal response (EC50) with RSV-A2-GFP virus (setting [3]) was less than 0.01 µM; with hMPV-GFP virus (setting [4]) it was greater than 0.1 µM.
